Results: ChEMBL document CHEMBL1201861, “Genomics of Drug Sensitity in Cancer screening data, Wellcome Trust Sanger Institute”

Tests used:
Assay in all cases: cells
Type in all cases: functional, cell-based, Homo sapiens
COLO-741 = settings: Homo sapiens, COLO-741
Description: SANGER: Inhibition of human COLO-741 cell growth in a cell viability assay.

Calu-3 = settings: Homo sapiens, Calu-3;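 note: growth inhibition of human Calu-3 cells, determined with a cell viability assay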
Description: SANGER: Inhibition of human Calu-3 cell growth in a cell viability assay.

D-336MG = settings: Homo sapiens, D-336MG
Description: SANGER: Inhibition of human D-336MG cell growth in a cell viability assay.

EFO-27 = settings: Homo sapiens, EFO-27;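 note: growth inhibition of EFO-27 cells, read out with a cell viability assay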
Description: SANGER: Inhibition of human EFO-27 cell growth in a cell viability assay.

ESS-1 = settings: Homo sapiens, ESS-1;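 note: growth inhibition of human ESS-1 cells, read out by a cell viability assay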
Description: SANGER: Inhibition of human ESS-1 cell growth in a cell viability assay.

GP5d = settings: Homo sapiens, GP5d;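 note: growth inhibition of human GP5d cells, read out with a cell viability assay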
Description: SANGER: Inhibition of human GP5d cell growth in a cell viability assay.

HOP-92 = settings: Homo sapiens, HOP-92;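 note: cell viability readout, with IC50 reflecting inhibition of HOP-92 cell growth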
Description: SANGER: Inhibition of human HOP-92 cell growth in a cell viability assay.

HT-3 = settings: Homo sapiens, HT-3;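 note: growth inhibition measured with a cell viability readout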
Description: SANGER: Inhibition of human HT-3 cell growth in a cell viability assay.

HuP-T3 = settings: Homo sapiens, HuP-T3;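 note: HuP-T3 cell growth inhibition, read out with a cell viability assay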
Description: SANGER: Inhibition of human HuP-T3 cell growth in a cell viability assay.

HuP-T4 = settings: Homo sapiens, HuP-T4;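 note: cell viability assay measuring how much HuP-T4 cell growth is inhibited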
Description: SANGER: Inhibition of human HuP-T4 cell growth in a cell viability assay.

M059J = settings: Homo sapiens, M059J;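 note: growth inhibition of M059J cells, read out with a cell viability assay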
Description: SANGER: Inhibition of human M059J cell growth in a cell viability assay.

MKN-28 = settings: Homo sapiens, MKN-28;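 note: cell viability assay read-out, IC50 reflects suppression of growth of human MKN-28 cells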
Description: SANGER: Inhibition of human MKN28 cell growth in a cell viability assay.

NCI-H1755 = settings: Homo sapiens, NCI-H1755;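 note: cell viability readout used to measure growth inhibition of NCI-H1755 cells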
Description: SANGER: Inhibition of human NCI-H1755 cell growth in a cell viability assay.

NCI-H2052 = settings: Homo sapiens, NCI-H2052;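 note: growth inhibition of NCI-H2052 cells, read out with a cell viability assay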
Description: SANGER: Inhibition of human NCI-H2052 cell growth in a cell viability assay.

NCI-H2170 = settings: Homo sapiens, NCI-H2170;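 note: cell viability assay measuring growth inhibition of human NCI-H2170 cancer cells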
Description: SANGER: Inhibition of human NCI-H2170 cell growth in a cell viability assay.

NCI-H2452 = settings: Homo sapiens, NCI-H2452;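 note: growth inhibition of NCI-H2452 cells, read out with a cell viability assay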
Description: SANGER: Inhibition of human NCI-H2452 cell growth in a cell viability assay.

NCI-H292 = settings: Homo sapiens, NCI-H292;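 note: growth inhibition of NCI-H292 cells, read out with a cell viability assay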
Description: SANGER: Inhibition of human NCI-H292 cell growth in a cell viability assay.

NCI-H441 = settings: Homo sapiens, NCI-H441;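 note: growth inhibition of NCI-H441 cells, read out with a cell viability assay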
Description: SANGER: Inhibition of human NCI-H441 cell growth in a cell viability assay.

PANC-08-13 = settings: Homo sapiens, PANC-08-13;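 note: cell growth inhibition, measured with a cell viability assay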
Description: SANGER: Inhibition of human PANC-08-13 cell growth in a cell viability assay.

RO82-W-1 = settings: Homo sapiens, RO82-W-1;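 note: growth inhibition of human RO82-W-1 cells, measured with a cell viability assay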
Description: SANGER: Inhibition of human RO82-W-1 cell growth in a cell viability assay.

RPMI-2650 = settings: Homo sapiens, RPMI-2650
Description: SANGER: Inhibition of human RPMI-2650 cell growth in a cell viability assay.

RVH-421 = settings: Homo sapiens, RVH-421
Description: SANGER: Inhibition of human RVH-421 cell growth in a cell viability assay.

SK-MEL-24 = settings: Homo sapiens, SK-MEL-24;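 note: growth inhibition read out by a cell viability assay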
Description: SANGER: Inhibition of human SK-MEL-24 cell growth in a cell viability assay.

SNU-387 = settings: Homo sapiens, SNU-387
Description: SANGER: Inhibition of human SNU-387 cell growth in a cell viability assay.

SW-620 = settings: Homo sapiens, SW-620;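 note: growth inhibition of human SW-620 cells, measured by a cell viability assay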
Description: SANGER: Inhibition of human SW620 cell growth in a cell viability assay.

SAOS-2 = settings: Homo sapiens, SAOS-2;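 note: growth inhibition of human Saos-2 cells determined by a cell viability assay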
Description: SANGER: Inhibition of human Saos-2 cell growth in a cell viability assay.

ABC-1 = settings: Homo sapiens, ABC-1;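 note: growth inhibition of human ABC-1 cells, read out by a cell viability assay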
Description: SANGER: Inhibition of human ABC-1 cell growth in a cell viability assay.

ACHN = settings: Homo sapiens, ACHN;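 note: cell viability read-out used to gauge how strongly growth of human ACHN cells is suppressed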
Description: SANGER: Inhibition of human ACHN cell growth in a cell viability assay.

BFTC-905 = settings: Homo sapiens, BFTC-905
Description: SANGER: Inhibition of human BFTC-905 cell growth in a cell viability assay.

C32 = settings: Homo sapiens, C32;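 note: cell viability assay, with IC50 reflecting inhibition of C32 cell growth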
Description: SANGER: Inhibition of human C32 cell growth in a cell viability assay.

CAL-120 = settings: Homo sapiens, CAL-120;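 note: cell growth inhibition, read out as cell viability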
Description: SANGER: Inhibition of human CAL-120 cell growth in a cell viability assay.

CAL-33 = settings: Homo sapiens, CAL-33;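 note: growth inhibition of CAL-33 cells, read out with a cell viability assay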
Description: SANGER: Inhibition of human CAL-33 cell growth in a cell viability assay.

TYK-nu = settings: Homo sapiens, TYK-nu;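 note: growth inhibition of human TYK-nu cells, read out by a cell viability assay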
Description: SANGER: Inhibition of human TYK-nu cell growth in a cell viability assay.

U-118-MG = settings: Homo sapiens, U-118-MG
Description: SANGER: Inhibition of human U-118-MG cell growth in a cell viability assay.

UMC-11 = settings: Homo sapiens, UMC-11;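 note: growth inhibition of UMC-11 cells, read out with a cell viability assay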
Description: SANGER: Inhibition of human UMC-11 cell growth in a cell viability assay.

YKG-1 = settings: Homo sapiens, YKG-1;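 note: cell growth inhibition, read out with a viability assay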
Description: SANGER: Inhibition of human YKG-1 cell growth in a cell viability assay.

COLO-678 = settings: Homo sapiens, COLO-678
Description: SANGER: Inhibition of human COLO-678 cell growth in a cell viability assay.

NCI-H2009 = settings: Homo sapiens, NCI-H2009;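 note: cell viability assay measuring inhibition of NCI-H2009 cell growth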
Description: SANGER: Inhibition of human NCI-H2009 cell growth in a cell viability assay.

Row | SMILES | IC50 (COLO-741) [nM] | IC50 (Calu-3) [nM] | IC50 (EFO-27) [nM] | IC50 (ESS-1) [nM] | IC50 (GP5d) [nM] | IC50 (HOP-92) [nM] | IC50 (HT-3) [nM] | IC50 (HuP-T3) [nM] | IC50 (HuP-T4) [nM] | IC50 (M059J) [nM] | IC50 (NCI-H1755) [nM] | IC50 (NCI-H2052) [nM] | IC50 (NCI-H2170) [nM] | IC50 (NCI-H2452) [nM] | IC50 (NCI-H292) [nM] | IC50 (NCI-H441) [nM] | IC50 (PANC-08-13) [nM] | IC50 (RO82-W-1) [nM] | IC50 (RPMI-2650) [nM] | IC50 (RVH-421) [nM] | also measured
1 | COc1cc2c(Nc3ccc(NC(=O)c4ccccc4)cc3)ncnc2cc1OCCCN1CCOCC1 | > 4000 | > 4000 | > 4000 | > 4000 | > 4000 | > 4000 | > 4000 | > 4000 | > 4000 | > 4000 | > 4000 | > 4000 | > 4000 | > 4000 | 1700 | > 4000 | > 4000 | > 4000 | > 4000 | > 4000 | IC50 (D-336MG): > 4000 nM; IC50 (MKN-28): > 4000 nM; IC50 (SK-MEL-24): > 4000 nM; IC50 (SNU-387): > 4000 nM; IC50 (SW-620): > 4000 nM; IC50 (SAOS-2): > 4000 nM; IC50 (ABC-1): 1400 nM; IC50 (ACHN): > 4000 nM; IC50 (BFTC-905): 2420 nM; IC50 (C32): 3830 nM; IC50 (CAL-120): > 4000 nM; IC50 (CAL-33): 1730 nM; IC50 (TYK-nu): > 4000 nM; IC50 (U-118-MG): > 4000 nM; IC50 (UMC-11): 2370 nM; IC50 (YKG-1): 3140 nM; IC50 (COLO-678): > 4000 nM
2 | CC(C)c1ccccc1Cc1cc(C(=O)Nc2ccc(S(=O)(=O)c3ccccc3C(C)(C)C)cc2)c(O)c(O)c1O | 1370 | 5400 | 117 | 141 | 782 | 358 | 192 | 1290 | 543 | 1300 | 1620 | 1390 | 1000 | 754 | 360 | 1730 | 3770 | 398 | 238 | 253 | IC50 (D-336MG): 958 nM; IC50 (MKN-28): 1130 nM; IC50 (NCI-H2009): 245 nM; IC50 (SK-MEL-24): 410 nM; IC50 (SNU-387): 248 nM; IC50 (SW-620): 961 nM; IC50 (SAOS-2): 613 nM; IC50 (ABC-1): 316 nM; IC50 (ACHN): 149 nM; IC50 (BFTC-905): 708 nM; IC50 (C32): 2020 nM; IC50 (CAL-120): 479 nM; IC50 (CAL-33): 817 nM; IC50 (TYK-nu): 324 nM; IC50 (U-118-MG): 190 nM; IC50 (UMC-11): 1310 nM; IC50 (YKG-1): 29.8 nM; IC50 (COLO-678): 3310 nM
3 | CC(C)CCN1c2nc(Nc3cc(F)c(O)c(F)c3)ncc2N(C)C(=O)C1C (stereo not drawn) | > 5000 | > 5000 | > 5000 | > 5000 | > 5000 | > 5000 | 2510 | > 5000 | > 5000 | 3710 | > 5000 | > 5000 | > 5000 | > 5000 | 1460 | > 5000 | > 5000 | > 5000 | > 5000 | > 5000 | IC50 (D-336MG): > 5000 nM; IC50 (MKN-28): > 5000 nM; IC50 (NCI-H2009): > 5000 nM; IC50 (SK-MEL-24): > 5000 nM; IC50 (SNU-387): > 5000 nM; IC50 (SW-620): > 5000 nM; IC50 (SAOS-2): > 5000 nM; IC50 (ABC-1): > 5000 nM; IC50 (ACHN): > 5000 nM; IC50 (BFTC-905): 1560 nM; IC50 (C32): 3970 nM; IC50 (CAL-120): > 5000 nM; IC50 (CAL-33): 3530 nM; IC50 (TYK-nu): 3540 nM; IC50 (U-118-MG): > 5000 nM; IC50 (UMC-11): > 5000 nM; IC50 (YKG-1): 1980 nM; IC50 (COLO-678): > 5000 nM
4 | CC1(C)CNc2cc(NC(=O)c3cccnc3NCc3ccncc3)ccc21 [MOTESANIB] | > 2000 | > 2000 | > 2000 | > 2000 | > 2000 | > 2000 | > 2000 | > 2000 | > 2000 | > 2000 | > 2000 | > 2000 | > 2000 | > 2000 | > 2000 | > 2000 | > 2000 | > 2000 | > 2000 | > 2000 | IC50 (D-336MG): > 2000 nM; IC50 (MKN-28): > 2000 nM; IC50 (SK-MEL-24): > 2000 nM; IC50 (SNU-387): > 2000 nM; IC50 (SW-620): > 2000 nM; IC50 (SAOS-2): > 2000 nM; IC50 (ABC-1): > 2000 nM; IC50 (ACHN): > 2000 nM; IC50 (BFTC-905): > 2000 nM; IC50 (C32): > 2000 nM; IC50 (CAL-120): > 2000 nM; IC50 (CAL-33): > 2000 nM; IC50 (TYK-nu): > 2000 nM; IC50 (U-118-MG): > 2000 nM; IC50 (UMC-11): > 2000 nM; IC50 (YKG-1): > 2000 nM; IC50 (COLO-678): > 2000 nM
5 | CCN(CC)CCCCNc1ncc2cc(-c3cc(OC)cc(OC)c3)c(NC(=O)NC(C)(C)C)nc2n1 [PD-173074] | > 2000 | > 2000 | > 2000 | > 2000 | > 2000 | > 2000 | > 2000 | > 2000 | > 2000 | > 2000 | > 2000 | > 2000 | > 2000 | > 2000 | > 2000 | > 2000 | > 2000 | > 2000 | > 2000 | > 2000 | IC50 (D-336MG): > 2000 nM; IC50 (MKN-28): > 2000 nM; IC50 (SK-MEL-24): > 2000 nM; IC50 (SNU-387): > 2000 nM; IC50 (SW-620): > 2000 nM; IC50 (SAOS-2): > 2000 nM; IC50 (ABC-1): > 2000 nM; IC50 (ACHN): > 2000 nM; IC50 (BFTC-905): > 2000 nM; IC50 (C32): > 2000 nM; IC50 (CAL-120): > 2000 nM; IC50 (CAL-33): > 2000 nM; IC50 (TYK-nu): > 2000 nM; IC50 (U-118-MG): > 2000 nM; IC50 (UMC-11): > 2000 nM; IC50 (YKG-1): > 2000 nM; IC50 (COLO-678): > 2000 nM
6 | Cn1cnc2c(F)c(Nc3ccc(Br)cc3Cl)c(C(=O)NOCCO)cc21 [SELUMETINIB] | 531 | > 4000 | 3330 | > 4000 | > 4000 | > 4000 | > 4000 | > 4000 | 195 | > 4000 | > 4000 | > 4000 | > 4000 | > 4000 | 1120 | > 4000 | > 4000 | > 4000 | > 4000 | 279 | IC50 (SNU-387): > 4000 nM; IC50 (SW-620): 302 nM; IC50 (SAOS-2): > 4000 nM; IC50 (ABC-1): > 4000 nM; IC50 (BFTC-905): 2420 nM; IC50 (C32): 98.2 nM; IC50 (CAL-120): > 4000 nM; IC50 (CAL-33): 1550 nM; IC50 (TYK-nu): > 4000 nM; IC50 (U-118-MG): > 4000 nM; IC50 (UMC-11): > 4000 nM; IC50 (YKG-1): > 4000 nM; IC50 (COLO-678): 1620 nM
7 | CS(=O)(=O)c1ccc(C(=O)Nc2ccc(Cl)c(-c3ccccn3)c2)c(Cl)c1 [VISMODEGIB] | > 10000 | > 10000 | > 10000 | > 10000 | > 10000 | > 10000 | > 10000 | > 10000 | > 10000 | > 10000 | > 10000 | > 10000 | > 10000 | > 10000 | > 10000 | > 10000 | > 10000 | > 10000 | > 10000 | > 10000 | IC50 (D-336MG): > 10000 nM; IC50 (MKN-28): > 10000 nM; IC50 (NCI-H2009): > 10000 nM; IC50 (SK-MEL-24): > 10000 nM; IC50 (SNU-387): > 10000 nM; IC50 (SW-620): > 10000 nM; IC50 (SAOS-2): > 10000 nM; IC50 (ABC-1): > 10000 nM; IC50 (ACHN): > 10000 nM; IC50 (BFTC-905): > 10000 nM; IC50 (C32): > 10000 nM; IC50 (CAL-120): > 10000 nM; IC50 (CAL-33): > 10000 nM; IC50 (TYK-nu): > 10000 nM; IC50 (U-118-MG): > 10000 nM; IC50 (UMC-11): > 10000 nM; IC50 (YKG-1): > 10000 nM; IC50 (COLO-678): > 10000 nM
